Laboratory results as given in US4758574A, “2-phenylimidazio (4,5-c) pyridines” (Eli Lilly and Company, priority 1986, dated 1988).
Where a name gives a salt, the structure may show the parent alone. Read-outs that look alike come from different tables or passages of the source.

Key:
[1] = test system: Cat Papillary Muscles; assay: Positive Inotropic Activity in Isolated Cat Papillary Muscles; format: cell-based; conditions: Felis catus, control = 100 percent, read-out: Contractility of Papillary Muscle (peak response); for activity at 100 µM: Drug Concentration 10^-4 M; for activity at 10 µM: Drug Concentration 10^-5 M
Procedure: Positive Inotropic Activity in Isolated Cat Papillary Muscles […] A platinum hook secured one end of the muscle to an electrode mounted in the bottom of the bath, and a silk thread attached the tendon to a Statham isometric transducer. The baths contained Krebs-Henseleit solution (36° C., bubbled with 95 percent oxygen--5 percent carbon dioxide) of the following millimolar composition: NaCl, 118; KCl, 4.5; CaCl2, 2.5; KH2 PO4, 1.1; MgSO4, 1.2; NaHCO3, 25; and glucose, 11. A base-line tension of 1.5 g. was applied to each muscle. Square-wave pulses (5.0 msec. in duration, three times threshold voltage) delivered through the hook electrode and a second electrode positioned near the top of the muscle evoked 12 contractions/minute, which were recorded on a Grass polygraph. After the muscles had equilibrated for 60 minutes, the recorder gain was adjusted so that the pen deflected 10 mm. The drug was introduced in a solution of normal saline in an amount to bring the final concentration of the drug to 10^-5 or 10^-4 molar. Increases in contractility were tabulated as millimeters of pen deflection in excess of the baseline value. In each experiment the maximum contractility was measured. Test results are summarized in Table I and are expressed as percent of control (control=100 percent). Values are the average of results from 2 to 8 muscles.

[2] = test system: Ventricular Contractility in the Anesthetized Dog; assay: Ventricular Contractility in the Anesthetized Dog; format: in vivo, Mongrel dogs; conditions: Canis lupus familiaris, iv, i.v. bolus, read-out: ED50 (dose required to produce a peak increase in contractility of 50%)
Procedure: Experiments in Anesthetized Dogs Mongrel dogs of either sex ranging in weight from 7 to 14 kg. wer used. Anesthesia was induced with sodium pentobarbital (30 mg./kg., i.v.) and maintained with supplemental doses as required. A positive-pressure pump was used to ventilate the dogs through an endotracheal tube (18 strokes/minute, 20 ml./kg. stroke^-1), and a heating pad kept the body temperature at 37°-38° C. Femoral arterial blood pressure was measured through a polyethylene catheter filled with heparin solution (16 units/ml.) and connected to a Statham pressure transducer. A strain-gauge arch sutured to the right ventricle of the heart measured cardiac contractility. Tension on the gauge was adjusted to 50 g. and the gain of the recorder (Beckman dynograph) was set so that 50 g. caused a 10-mm. pen deflection; cardiac contractile tension was measured as millimeters of pen deflection or grams of tension. The drug was administered following a 30-45 minute equilibrium period as an i.v. bolus (2-5 ml.) in a normal saline vehicle. […] The maximum effects on contractility at various dose levels were determined and plotted and the dose required to produce a 50% increase in contractility (ED50) was determined by interpolation.

[3] = test system: SRS-A release, guinea pig lung; assay: Inhibition of SRS-A (Slow-Reacting Substance of Anaphylaxis) From Guinea Pig Lung; format: cell-based; conditions: Cavia porcellus, sensitized guinea pig lung, ovalbumin antigen, read-out: percent inhibition of SRS-A release
Procedure: Inhibition of SRS-A (Slow-Reacting Substance of Anaphylaxis) From Guinea Pig Lung
Male, Hartley guinea pigs, usually 1-2 weeks old, were sensitized with respect to ovalbumin by intraperitoneal administration of 0.15 ml. hyperimmune serum obtained from guinea pigs actively sensitized against ovalbumin. After 2 days or more, the animals were decapitated, lungs were excised and perfused through the pulmonary artery with Krebs' bicarbonate solution of the following composition in mmoles/liter: KCl, 4.6; CaCl2.2 H2 O, 1.8; KH2 PO4, 1.2; MgSO4.7H2 O, 1.2; NaCl, 118.2; NaHCO3, 24.8; and dextrose, 10.0. Poorly perfused and bloody areas were discarded. Normal lung was cut into 1 mm. cubes with a McIlwain tissue chopper, washed with Krebs' solution and divided into 400 mg. aliquots. The fragmented tissue was then incubated at 37° C. for 15 minutes in Krebs' solution containing indomethacin to optimize SRS-A release and an appropriate concentration of experimental drug. Antigen (ovalbumin) was then added to make a final concentration of 1×10^-5 g./ml. Fifteen minutes later, the incubation medium was decanted and centrifuged at 3,000×g at 4° C. for 5 minutes. […] Release of SRS-A in the presence of the experimental drug was compared to a control sample and the results expressed as percent inhibition of SRS-A release.

`c1ccc(-c2nc3cnccc3[nH]2)cc1` [Example 7, 2-Phenylimidazo[4,5-c]pyridine] was tested, and the activity at 100 µM [1] was 192%, the activity at 10 µM [1] was 107% and the ED50 ([2]; tested as the hydrochloride salt) was 2.5 mg/kg.

`COc1ccc(-c2nc3cnccc3[nH]2)c(OC)c1` [Example 8, 2-(2,4-Dimethoxyphenyl)imidazo[4,5-c]pyridine hydrochloride] showed an activity at 100 µM [1] of 172%, an activity at 10 µM [1] of 158% and an inhibition at 100 µM ([3]; 1×10^-4 M) of 45.1%. The inhibition at 10 µM ([3]; 1×10^-5 M) was 19.4% and the ED50 [2] was 0.27 mg/kg.

Work on `CSc1ccc(-c2nc3cnccc3[nH]2)cc1.Cl` [Example 9, 2-(4-methylmercaptophenyl)imidazo[4,5-c]pyridine hydrochloride] yielded an activity at 100 µM [1] of 205%, an activity at 10 µM [1] of 113% and an ED50 [2] of 4 mg/kg.

`CCOc1ccc(-c2nc3cnccc3[nH]2)cc1.Cl` [Example 13, 2-(4-ethoxyphenyl)imidazo[4,5-c]pyridine hydrochloride] showed an activity at 100 µM [1] of 157%, an activity at 10 µM [1] of 104% and an ED50 [2] of 2.5 mg/kg.

`COc1ccc(-c2nc3cnccc3[nH]2)cc1.Cl` [Example 15, 2-(4-methoxyphenyl)imidazo[4,5-c]pyridine hydrochloride] gave an activity at 100 µM [1] of 204%, an activity at 10 µM [1] of 104% and an ED50 [2] of 1.7 mg/kg.

For `COc1cc(SC)ccc1-c1nc2cnccc2[nH]1.Cl` [Example 23, 2-(2-methoxy-4-methylmercaptophenyl)imidazo[4,5-c]pyridine hydrochloride], the activity at 100 µM [1] was 142%, the activity at 10 µM [1] was 141% and the ED50 [2] was 0.21 mg/kg.

In the case of `Cc1ccc(-c2nc3cnccc3[nH]2)c(C)c1` [Example 24, 2-(2,4-dimethylphenyl)imidazo[4,5-c]pyridine hydrochloride], the activity at 100 µM [1] is reported as 94%, the activity at 10 µM [1] is reported as 87% and the ED50 [2] is reported as 1.4 mg/kg.

Work on `Cc1ccccc1-c1nc2cnccc2[nH]1` [Example 26, 2-(2-methylphenyl)imidazo[4,5-c]pyridine hydrochloride] yielded an activity at 100 µM [1] of 188%, an activity at 10 µM [1] of 106% and an ED50 [2] of 2.2 mg/kg.

For `COc1cc([S+](C)[O-])ccc1-c1nc2cnccc2[nH]1` (centres unmarked) [Example 27, 2-(2-methoxy-4-methylsulfinylphenyl)imidazo[4,5-c]pyridine], the activity at 100 µM [1] was 200%, the activity at 10 µM [1] was 245% and the ED50 [2] was 0.03 mg/kg.

In the case of `CCCOc1cc(OC)ccc1-c1nc2cnccc2[nH]1` [Example 29, 2-(2-n-propoxy-4-methoxyphenyl)imidazo[4,5-c]pyridine], the activity at 100 µM [1] is reported as 335%, the activity at 10 µM [1] is reported as 134% and the ED50 [2] is reported as 1.3 mg/kg.

Compound `COc1ccc(-c2nc3cnccc3[nH]2)c(OCCSC)c1` [Example 39, 2-[2-(β-methylmercaptoethoxy)-4-methoxyphenyl]imidazo[4,5-c]pyridine] has an activity at 100 µM [1] of 140%, an activity at 10 µM [1] of 118% and an ED50 [2] of 1.1 mg/kg.

With `CCSCCOc1cc(OC)ccc1-c1nc2cnccc2[nH]1.Cl` [Example 45, 2-[2-(β-ethylmercaptoethoxy)-4-methoxyphenyl]imidazo[4,5-c]pyridine h ydrochloride] the activity at 100 µM [1] was 125%, the activity at 10 µM [1] was 122% and the ED50 [2] was 1 mg/kg.

With `Clc1ccc(-c2nc3cnccc3[nH]2)c(Cl)c1` [Example 47, 2-(2,4-dichlorophenyl)imidazo[4,5-c]pyridine] the activity at 100 µM [1] was 157%, the activity at 10 µM [1] was 105% and the ED50 [2] was 0.67 mg/kg.

Work on `COc1cc(S(C)(=O)=O)ccc1-c1nc2cnccc2[nH]1` [Example 50, 2-(2-methoxy-4-methylsulfonylphenyl)imidazo[4,5-c]pyridine] yielded an activity at 100 µM [1] of 221%, an activity at 10 µM [1] of 176% and an ED50 [2] of 0.02 mg/kg.

`COc1ccc(-c2nc3cnccc3[nH]2)c(OCC[S+](C)[O-])c1` (stereo not drawn) [Example 52, 2-[2-(β-methylsulfinylethoxy)-4-methoxyphenyl]imidazo[4,5-c]pyridine] was tested, and the activity at 100 µM [1] was 185%, the activity at 10 µM [1] was 122% and the ED50 [2] was 5.2 mg/kg.

`CCCOc1cc([S+](C)[O-])ccc1-c1nc2cnccc2[nH]1` (centres unmarked) [Example 54, 2-(2-n-propoxy-4-methylsulfinylphenyl)imidazo[4,5-c]pyridine] gave an activity at 100 µM [1] of 159%, an activity at 10 µM [1] of 122% and an ED50 [2] of 1 mg/kg.

For `COc1ccc(-c2nc3cnccc3[nH]2)cc1OC.Cl` [Example 56, 2-(3,4-dimethoxyphenyl)imidazo[4,5-c]pyridine hydrochloride], the activity at 100 µM [1] was 252%, the activity at 10 µM [1] was 163% and the ED50 [2] was 0.38 mg/kg.

`COc1cc(C(F)(F)F)ccc1-c1nc2cnccc2[nH]1.Cl` [Example 59, 2-(2-Methoxy-4-trifluoromethylphenyl)imidazo[4,5-c]pyridine hydrochloride] showed an activity at 100 µM [1] of 134%, an activity at 10 µM [1] of 139% and an ED50 [2] of 0.005 mg/kg.

In the case of `COc1cc([N+](=O)[O-])ccc1-c1nc2cnccc2[nH]1` [Example 60, 2-(2-Methoxy-4-nitrophenyl)imidazo[4,5-c]pyridine], the activity at 100 µM [1] is reported as 145%, the activity at 10 µM [1] is reported as 142% and the ED50 [2] is reported as 0.015 mg/kg.
